Among the data in patent publication US20260176320A1, “MODULATORS OF G-PROTEIN COUPLED RECEPTORS” (priority 2018, published 2026) are EC50 and Emax values, retold here.

One may read the Emax as the greatest response seen or fitted, relative to the assay's reference.

What all share (assay type): cell-based
One experiment deals with T1, GIP-R (Homo sapiens, UniProt P48546).
T1 sequence (P48546 22-466): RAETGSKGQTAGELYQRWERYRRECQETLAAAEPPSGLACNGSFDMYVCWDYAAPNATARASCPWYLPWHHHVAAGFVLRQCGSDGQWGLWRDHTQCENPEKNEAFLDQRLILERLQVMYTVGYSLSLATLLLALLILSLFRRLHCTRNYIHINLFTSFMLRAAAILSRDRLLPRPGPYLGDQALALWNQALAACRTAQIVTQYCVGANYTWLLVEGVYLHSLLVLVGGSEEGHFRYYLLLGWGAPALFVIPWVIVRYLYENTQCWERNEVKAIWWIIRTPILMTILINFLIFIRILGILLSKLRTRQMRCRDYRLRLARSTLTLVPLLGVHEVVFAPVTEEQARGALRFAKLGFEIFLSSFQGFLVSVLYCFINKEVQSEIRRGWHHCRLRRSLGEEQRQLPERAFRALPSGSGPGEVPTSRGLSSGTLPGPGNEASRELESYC
As to the kind of experiment: HitHunter cAMP assay (GIP-R). To be noted: cAMP; for Emax: read-out: (Emax) GIP-R. The gist of the method: (§1)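 Cells were resuspended in HBSS plus HEPES, IBMX (625 μM) and BSA, then dispensed with antibody at 10,000 per well. Agonists followed as 22-point twofold series, 30 min at room temperature. Antibody reagent and detection steps ran 1 h and overnight in the dark before luminescence.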
On the technique in general: Changes in cAMP serve as a functional read-out for many G protein-coupled receptors.

In experiment [1] the target is T2, GLP-1R (Homo sapiens, UniProt P43220). Nature of the experiment: HitHunter cAMP assay (GLP-1R). To be noted: cAMP; for Emax: read-out: (Emax) GLP-1R. Put shortly:
as §1

For experiment [2], the target named is T2, GLP-1R. As to the kind of experiment: PathHunter β-arrestin assay. Put shortly:
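Agonist concentration–response (22 points, 2-fold steps, duplicates) was run on cells plated the previous day in BSA-supplemented (0.2%) medium. Stimulation lasted 90 min at 37 °C, followed by a 3 h dark incubation with detection reagent at room temperature and a luminescence read.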

The mark [3] stands for this setting: Table 3, read-out: EC50 GIP-R/nM.
Where [4] appears, read: Table 3A, read-out: EC50 GIP-R/nM.
Setting [5] is: Table 3, read-out: EC50 GLP-1R/nM.
The mark [6] stands for this setting: Table 3A, read-out: EC50 GLP-1R/nM.
The mark [7] stands for this setting: PathHunter β-arrestin assay, read-out: β-arrestin activity EC50.

Where two headings read alike, the source gives them in different places. Some results are limits rather than exact numbers.

T2 sequence (P43220 24-463): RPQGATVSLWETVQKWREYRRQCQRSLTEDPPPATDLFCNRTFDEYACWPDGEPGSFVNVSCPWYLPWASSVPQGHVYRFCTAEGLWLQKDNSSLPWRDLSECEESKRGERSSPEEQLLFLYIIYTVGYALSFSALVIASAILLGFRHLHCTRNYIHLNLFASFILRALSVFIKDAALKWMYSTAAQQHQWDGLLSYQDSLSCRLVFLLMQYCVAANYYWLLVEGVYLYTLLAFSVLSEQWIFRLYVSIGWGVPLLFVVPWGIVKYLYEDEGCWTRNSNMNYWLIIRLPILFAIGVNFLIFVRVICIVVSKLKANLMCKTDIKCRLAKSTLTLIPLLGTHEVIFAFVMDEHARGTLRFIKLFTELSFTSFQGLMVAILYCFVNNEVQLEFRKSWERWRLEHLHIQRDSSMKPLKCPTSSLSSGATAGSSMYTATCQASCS

For the molecule `CCCCCCCCCCCCCCCC(=O)N[C@@H](CCC(=O)NCCCC[C@H](NC(=O)[C@H](CO)NC(=O)[C@@H]1CCCN1C(=O)[C@@H]1CCCN1C(=O)[C@@H]1CCCN1C(=O)[C@H](C)NC(=O)CNC(=O)[C@H](CO)NC(=O)[C@H](CO)NC(=O)[C@@H]1CCCN1C(=O)CNC(=O)CNC(=O)[C@H](C)NC(=O)[C@H](CC(C)C)NC(=O)[C@H](CC(C)C)NC(=O)[C@H](Cc1c[nH]c2ccccc12)NC(=O)[C@H](CC(N)=O)NC(=O)[C@@H](NC(=O)[C@H](Cc1ccccc1)NC(=O)[C@H](CCC(=O)O)NC(=O)C(C)(C)NC(=O)[C@H](C)NC(=O)[C@H](C)NC(=O)[C@H](CCC(N)=O)NC(=O)[C@H](CCCCN)NC(=O)[C@H](CC(=O)O)NC(=O)[C@H](CC(C)C)NC(=O)[C@H](Cc1ccc(O)cc1)NC(=O)[C@@H](NC(=O)[C@H](CO)NC(=O)[C@H](Cc1ccc(O)cc1)NC(=O)[C@H](CC(=O)O)NC(=O)[C@H](CO)NC(=O)[C@@H](NC(=O)[C@H](Cc1ccccc1)NC(=O)[C@@H](NC(=O)CNC(=O)[C@H](CCC(=O)O)NC(=O)CSCC(=O)NCCN1CCc2ccccc2C1=O)[C@@H](C)O)[C@@H](C)O)[C@@H](C)CC)C(C)C)C(N)=O)C(=O)O` [Compound 13], the EC50 at GIP-R (EC50 GIP-R/nM, Table 3) is 1 to 10 nM; on GIP-R (EC50 GIP-R/nM, Table 3A) it was 10 to 100 nM; at GLP-1R [1] (EC50 GLP-1R/nM, Table 3) it was 1 to 10 nM; on GLP-1R [1] (EC50 GLP-1R/nM, Table 3A), 1 to 10 nM; on GLP-1R [2], > 1000 nM. For the same molecule, the Emax on GIP-R (Table 3) amounted to 25%; on GIP-R (Table 3A), 25%; at GLP-1R [1] (Table 3), 69%; at GLP-1R [1] (Table 3A) it was 69%.
Consider `CCCCCCCCCCCCCCCC(=O)N[C@@H](CCC(=O)NCCCC[C@H](NC(=O)[C@H](CO)NC(=O)[C@@H]1CCCN1C(=O)[C@@H]1CCCN1C(=O)[C@@H]1CCCN1C(=O)[C@H](C)NC(=O)CNC(=O)[C@H](CO)NC(=O)[C@H](CO)NC(=O)[C@@H]1CCCN1C(=O)CNC(=O)CNC(=O)[C@H](C)NC(=O)[C@H](CC(C)C)NC(=O)[C@H](CC(C)C)NC(=O)[C@H](Cc1c[nH]c2ccccc12)NC(=O)[C@H](CC(N)=O)NC(=O)[C@@H](NC(=O)[C@H](Cc1ccccc1)NC(=O)[C@H](CCC(=O)O)NC(=O)C(C)(C)NC(=O)[C@H](C)NC(=O)[C@H](C)NC(=O)[C@H](CCC(N)=O)NC(=O)[C@H](CCCCN)NC(=O)[C@H](CC(=O)O)NC(=O)[C@H](CC(C)C)NC(=O)[C@H](Cc1ccc(O)cc1)NC(=O)[C@@H](NC(=O)[C@H](CO)NC(=O)[C@H](Cc1ccc(O)cc1)NC(=O)[C@H](CC(=O)O)NC(=O)[C@H](CO)NC(=O)[C@@H](NC(=O)[C@H](Cc1ccccc1)NC(=O)[C@@H](NC(=O)CNC(=O)[C@H](CCC(=O)O)NC(=O)CSCC(=O)NCCN1CC[C@H](OC)C1=O)[C@@H](C)O)[C@@H](C)O)[C@@H](C)CC)C(C)C)C(N)=O)C(=O)O` [Compound 14], for which the EC50 on GIP-R (EC50 GIP-R/nM, Table 3) was 10 to 100 nM; on GLP-1R [1] (EC50 GLP-1R/nM, Table 3) it was 0.1 to 1 nM; at GLP-1R [1] (EC50 GLP-1R/nM, Table 3A), 0.1 to 1 nM; on GLP-1R [2], > 1000 nM. Further, the Emax on GIP-R (Table 3) was < 10%; on GLP-1R [1] (Table 3), 81%; on GLP-1R [1] (Table 3A) it was 81%.
For `CCCCCCCCCCCCCCCC(=O)N[C@@H](CCC(=O)NCCCC[C@H](NC(=O)[C@H](CO)NC(=O)[C@@H]1CCCN1C(=O)[C@@H]1CCCN1C(=O)[C@@H]1CCCN1C(=O)[C@H](C)NC(=O)CNC(=O)[C@H](CO)NC(=O)[C@H](CO)NC(=O)[C@@H]1CCCN1C(=O)CNC(=O)CNC(=O)[C@H](C)NC(=O)[C@H](CC(C)C)NC(=O)[C@H](CC(C)C)NC(=O)[C@H](Cc1c[nH]c2ccccc12)NC(=O)[C@H](CC(N)=O)NC(=O)[C@@H](NC(=O)[C@H](Cc1ccccc1)NC(=O)[C@H](CCC(=O)O)NC(=O)C(C)(C)NC(=O)[C@H](C)NC(=O)[C@H](C)NC(=O)[C@H](CCC(N)=O)NC(=O)[C@H](CCCCN)NC(=O)[C@H](CC(=O)O)NC(=O)[C@H](CC(C)C)NC(=O)[C@H](Cc1ccc(O)cc1)NC(=O)[C@@H](NC(=O)[C@H](CO)NC(=O)[C@H](Cc1ccc(O)cc1)NC(=O)[C@H](CC(=O)O)NC(=O)[C@H](CO)NC(=O)[C@@H](NC(=O)[C@H](Cc1ccccc1)NC(=O)[C@@H](NC(=O)CNC(=O)[C@H](CCC(=O)O)NC(=O)CCCNC(=O)CCN1CCCCC1=O)[C@@H](C)O)[C@@H](C)O)[C@@H](C)CC)C(C)C)C(N)=O)C(=O)O` [Compound 15], the maximal effect (Emax) was 20% at GIP-R (Table 3), 20% on GIP-R (Table 3A), 93% on GLP-1R [1] (Table 3) and 93% on GLP-1R [1] (Table 3A). The EC50 at GIP-R (setting [3]) was 1 to 10 nM; on GIP-R (setting [4]), 10 to 100 nM; on GLP-1R [1] (setting [5]), 0.1 to 1 nM; on GLP-1R [1] (setting [6]), 0.1 to 1 nM; at GLP-1R [2] (setting [7]), > 1000 nM.
On to `CCCCCCCCCCCCCCCC(=O)N[C@@H](CCC(=O)NCCCC[C@H](NC(=O)[C@H](CO)NC(=O)[C@@H]1CCCN1C(=O)[C@@H]1CCCN1C(=O)[C@@H]1CCCN1C(=O)[C@H](C)NC(=O)CNC(=O)[C@H](CO)NC(=O)[C@H](CO)NC(=O)[C@@H]1CCCN1C(=O)CNC(=O)CNC(=O)[C@H](C)NC(=O)[C@H](CC(C)C)NC(=O)[C@H](CC(C)C)NC(=O)[C@H](Cc1c[nH]c2ccccc12)NC(=O)[C@H](CC(N)=O)NC(=O)[C@@H](NC(=O)[C@H](Cc1ccccc1)NC(=O)[C@H](CCC(=O)O)NC(=O)C(C)(C)NC(=O)[C@H](C)NC(=O)[C@H](C)NC(=O)[C@H](CCC(N)=O)NC(=O)[C@H](CCCCN)NC(=O)[C@H](CC(=O)O)NC(=O)[C@H](CC(C)C)NC(=O)[C@H](Cc1ccc(O)cc1)NC(=O)[C@@H](NC(=O)[C@H](CO)NC(=O)[C@H](Cc1ccc(O)cc1)NC(=O)[C@H](CC(=O)O)NC(=O)[C@H](CO)NC(=O)[C@@H](NC(=O)[C@H](Cc1ccccc1)NC(=O)[C@@H](NC(=O)CNC(=O)[C@H](CCC(=O)O)NC(=O)CSCC(=O)N(C)CCN1CCCCC1=O)[C@@H](C)O)[C@@H](C)O)[C@@H](C)CC)C(C)C)C(N)=O)C(=O)O` [Compound 17], for which the EC50 at GIP-R (EC50 GIP-R/nM, Table 3) was 1 to 10 nM; on GIP-R (EC50 GIP-R/nM, Table 3A), 1 to 10 nM; on GLP-1R [1] (EC50 GLP-1R/nM, Table 3) it was 0.1 to 1 nM; at GLP-1R [1] (EC50 GLP-1R/nM, Table 3A), 0.1 to 1 nM; on GLP-1R [2], > 1000 nM. For the same molecule, the Emax turned out to be 55% at GIP-R (Table 3), 55% at GIP-R (Table 3A), 92% on GLP-1R [1] (Table 3) and 92% at GLP-1R [1] (Table 3A).
Regarding `CCCCCCCCCCCCCCCC(=O)N[C@@H](CCC(=O)NCCCC[C@H](NC(=O)[C@H](CO)NC(=O)[C@@H]1CCCN1C(=O)[C@@H]1CCCN1C(=O)[C@@H]1CCCN1C(=O)[C@H](C)NC(=O)CNC(=O)[C@H](CO)NC(=O)[C@H](CO)NC(=O)[C@@H]1CCCN1C(=O)CNC(=O)CNC(=O)[C@H](C)NC(=O)[C@H](CC(C)C)NC(=O)[C@H](CC(C)C)NC(=O)[C@H](Cc1c[nH]c2ccccc12)NC(=O)[C@H](CC(N)=O)NC(=O)[C@@H](NC(=O)[C@H](Cc1ccccc1)NC(=O)[C@H](CCC(=O)O)NC(=O)C(C)(C)NC(=O)[C@H](C)NC(=O)[C@H](C)NC(=O)[C@H](CCC(N)=O)NC(=O)[C@H](CCCCN)NC(=O)[C@H](CC(=O)O)NC(=O)[C@H](CC(C)C)NC(=O)[C@H](Cc1ccc(O)cc1)NC(=O)[C@@H](NC(=O)[C@H](CO)NC(=O)[C@H](Cc1ccc(O)cc1)NC(=O)[C@H](CC(=O)O)NC(=O)[C@H](CO)NC(=O)[C@@H](NC(=O)[C@H](Cc1ccccc1)NC(=O)[C@@H](NC(=O)CNC(=O)[C@H](CCC(=O)O)NC(=O)C(C)(C)C(=O)NCCN1CCCCC1=O)[C@@H](C)O)[C@@H](C)O)[C@@H](C)CC)C(C)C)C(N)=O)C(=O)O` [Compound 19], the Emax at GIP-R (Table 3) was found to be 50%; at GIP-R (Table 3A), 50%; on GLP-1R [1] (Table 3) it was 93%; at GLP-1R [1] (Table 3A) it was 93%. Further, the EC50 at GIP-R (setting [3]) is 0.1 to 1 nM; on GIP-R (setting [4]) it was 0.1 to 1 nM; at GLP-1R [1] (setting [5]), < 0.1 nM; on GLP-1R [1] (setting [6]), < 0.1 nM; on GLP-1R [2] (setting [7]), < 10 nM.
